Drawing on patent US11638707B2, “Substituted amino triazoles useful as chitinase inhibitors” (Molecure S.A., priority 2019, dated 2023), this text covers IC50 for 17 compounds.

The structures appear in SMILES notation. Structures can show the parent of a compound that is named as a salt.

A word on the IC50: it is the concentration that gives 50% inhibition.

The target of one series is recombinant human CHIT1 (Homo sapiens (Human), UniProt Q13231). Put plainly: Human CHIT1 activity assay. It counts as biochemical. Particulars: recombinant human CHIT1, citrate buffer pH 5.2, 37° C., 60 minutes; read-out: hCHIT1, IC50. Here is the method: (§1) The assay was run in the 96-well plate format, each reaction in the total volume of 100 μL. 4-methylumbelliferyl β-D-N,N′,N″-triacetylchitotriose was used as a substrate for the enzyme. Upon hydrolysis by CHIT1, the substrate releases 4-methylumbelliferyl (4MU) that, when ionized in basic pH, emits fluorescence at 460 nm. Briefly, 40 μL of a substrate was added to each well, followed by 10 μL of compound dilution and 50 μL of CHIT1 recombinant enzyme solution. The reaction was carried out in citrate buffer, pH 5.2, in the dark, at 37° C. for 60 minutes with shaking. […] The IC50 values were calculated using GraphPad Prism.
recombinant human CHIT1, sequence (Q13231 22-466): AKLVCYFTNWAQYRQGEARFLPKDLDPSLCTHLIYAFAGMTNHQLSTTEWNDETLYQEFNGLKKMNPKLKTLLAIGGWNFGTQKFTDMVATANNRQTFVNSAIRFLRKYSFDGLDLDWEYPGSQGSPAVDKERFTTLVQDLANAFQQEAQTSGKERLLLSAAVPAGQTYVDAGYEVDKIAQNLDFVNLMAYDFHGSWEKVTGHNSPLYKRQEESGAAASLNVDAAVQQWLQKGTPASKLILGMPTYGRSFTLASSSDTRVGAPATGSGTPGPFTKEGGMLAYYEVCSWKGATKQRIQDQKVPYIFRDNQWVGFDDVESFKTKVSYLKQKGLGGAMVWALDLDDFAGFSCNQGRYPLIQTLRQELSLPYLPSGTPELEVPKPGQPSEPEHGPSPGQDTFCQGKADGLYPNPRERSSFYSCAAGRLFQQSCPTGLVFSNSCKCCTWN

A further series concerns the target recombinant human AMCase (Homo sapiens (Human), UniProt Q9BZP6). Description: Human AMCase activity assay. Particulars: citrate buffer pH 5.2, 37° C., 60 minutes, read-out: hAMCase, IC50. The class given is biochemical. As to the method:
as §1, with “4-Methylumbelliferyl B-D-N,N′-diacetylchitobioside hydrate” for “4-methylumbelliferyl β-D-N,N′,N″-triacetylchitotriose”, “AMCase,” for “CHIT1,”, “hAMCase” for “CHIT1”

The target in another series is hERG channel (Homo sapiens (Human), UniProt Q12809). Description: Human ERG channel binding assay (fluorescence polarization). The settings on record: Table 1; tracer displacement, 4 h at room temperature. Here is the method: Human ERG Channel Binding Assay
hERG channel, sequence (Q12809 whole entry): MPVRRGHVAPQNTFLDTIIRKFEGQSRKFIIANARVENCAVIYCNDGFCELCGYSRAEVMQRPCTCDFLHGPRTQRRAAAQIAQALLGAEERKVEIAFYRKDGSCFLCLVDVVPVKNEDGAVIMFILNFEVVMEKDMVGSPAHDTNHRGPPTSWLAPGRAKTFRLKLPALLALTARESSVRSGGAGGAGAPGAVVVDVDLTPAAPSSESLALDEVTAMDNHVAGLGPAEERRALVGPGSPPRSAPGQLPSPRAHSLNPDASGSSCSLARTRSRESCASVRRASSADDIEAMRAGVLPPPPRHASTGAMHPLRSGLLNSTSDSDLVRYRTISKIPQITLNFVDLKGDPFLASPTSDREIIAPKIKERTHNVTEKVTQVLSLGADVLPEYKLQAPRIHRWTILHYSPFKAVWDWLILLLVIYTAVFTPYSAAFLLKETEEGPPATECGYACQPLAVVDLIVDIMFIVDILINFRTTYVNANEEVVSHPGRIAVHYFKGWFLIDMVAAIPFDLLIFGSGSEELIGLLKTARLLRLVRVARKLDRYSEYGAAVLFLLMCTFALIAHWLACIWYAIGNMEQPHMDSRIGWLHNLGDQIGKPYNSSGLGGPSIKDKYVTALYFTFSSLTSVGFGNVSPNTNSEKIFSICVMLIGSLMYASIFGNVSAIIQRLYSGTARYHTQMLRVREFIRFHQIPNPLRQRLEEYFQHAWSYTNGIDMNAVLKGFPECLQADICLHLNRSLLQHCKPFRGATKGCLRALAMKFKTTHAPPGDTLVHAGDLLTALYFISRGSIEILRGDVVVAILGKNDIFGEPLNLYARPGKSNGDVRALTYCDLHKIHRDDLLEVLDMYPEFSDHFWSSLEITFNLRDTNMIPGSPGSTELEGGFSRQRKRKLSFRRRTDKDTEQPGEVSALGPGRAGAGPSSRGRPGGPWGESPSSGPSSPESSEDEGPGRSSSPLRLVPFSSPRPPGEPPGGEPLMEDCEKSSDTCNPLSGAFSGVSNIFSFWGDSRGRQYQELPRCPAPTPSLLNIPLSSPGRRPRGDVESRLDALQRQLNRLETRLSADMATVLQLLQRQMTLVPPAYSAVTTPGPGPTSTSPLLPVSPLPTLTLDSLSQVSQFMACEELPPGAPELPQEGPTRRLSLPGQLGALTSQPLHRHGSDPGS
Fluorescence polarization assay based on the principle of fluorescence polarization where a red-shifted fluorescent tracer is displaced from the hERG channel by compounds that bind to the channel was used to establish the binding of the compounds to hERG channel. […] Briefly, the compounds in serial dilutions were incubated with a membrane fraction containing hERG channel protein and a high-affinity red fluorescent hERG channel ligand in black 384-well plate. […] The IC50 values were calculated using GraphPad Prism.
(Polarisation of emitted light reports the rotation of a fluorescent probe.)

recombinant human AMCase, sequence (Q9BZP6 22-476): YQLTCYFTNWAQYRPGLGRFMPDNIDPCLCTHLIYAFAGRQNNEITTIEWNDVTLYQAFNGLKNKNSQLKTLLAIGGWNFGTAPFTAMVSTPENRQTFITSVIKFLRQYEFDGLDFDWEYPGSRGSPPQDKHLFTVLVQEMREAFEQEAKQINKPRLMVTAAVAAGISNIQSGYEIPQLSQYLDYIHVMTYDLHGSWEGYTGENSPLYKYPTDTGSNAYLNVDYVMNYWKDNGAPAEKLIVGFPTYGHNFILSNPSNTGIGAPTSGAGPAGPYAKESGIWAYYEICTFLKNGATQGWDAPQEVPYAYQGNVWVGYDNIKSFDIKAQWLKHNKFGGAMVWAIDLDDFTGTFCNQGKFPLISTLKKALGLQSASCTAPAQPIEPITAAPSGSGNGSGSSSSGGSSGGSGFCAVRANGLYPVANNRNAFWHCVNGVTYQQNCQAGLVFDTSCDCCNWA

Turning to `Nc1nnc(N2CCC(N3C[C@H](CN4CCCC4=O)OC[C@@H]3Cc3ccc(Cl)cc3)CC2)[nH]1` [Example 7, 1-(((2R,5S)-4-(1-(5-amino-4H-1,2,4-triazol-3-yl)piperidin-4-yl)-5-(4-chlorobenzyl)-morpholin-2-yl)methyl)pyrrolidin-2-one 2,2,2-trifluoroacetate], the concentration for half-maximal inhibition (IC50) on recombinant human CHIT1 is below 100 nM; on recombinant human AMCase, below 100 nM; at hERG channel it was above 100000 nM.

For the compound `Nc1nnc(N2CCC(N3C[C@H](c4ccn[nH]4)OC[C@@H]3Cc3ccc(Cl)cc3)CC2)[nH]1` [Example 12, 5-(4-((2R,5S)-5-(4-chlorobenzyl)-2-(1H-pyrazol-5-yl)morpholino)piperidin-1-yl)-4H-1,2,4-triazol-3-amine 2,2,2-trifluoroacetate], the IC50 at recombinant human CHIT1 is below 100 nM; at recombinant human AMCase, below 100 nM; on hERG channel, above 100000 nM.

As for `Nc1nnc(N2CCC(N3C[C@H](Cc4nn[nH]n4)OC[C@@H]3Cc3ccc(Cl)cc3)CC2)[nH]1` [Example 4, 5-(4-((2S,5S)-2-((2H-tetrazol-5-yl)methyl)-5-(4-chlorobenzyl)morpholino)-piperidin-1-yl)-4H-1,2,4-triazol-3-amine 2,2,2-trifluoroacetate], the IC50 at recombinant human CHIT1 is below 100 nM; at recombinant human AMCase, below 100 nM; on hERG channel, above 100000 nM.

As for `Nc1nnc(N2CCC(N3C[C@H](C(=O)N4CCCC4)OC[C@@H]3Cc3ccc(Cl)cc3)CC2)[nH]1` [Example 60, ((2R,5S)-4-(1-(5-amino-4H-1,2,4-triazol-3-yl)piperidin-4-yl)-5-(4-chlorobenzyl)-morpholin-2-yl)(pyrrolidin-1-yl)methanone 2,2,2-trifluoroacetate], the IC50 is 100 to 1000 nM at recombinant human CHIT1, below 100 nM on recombinant human AMCase and above 100000 nM at hERG channel.

With `Nc1nnc(N2CCC(N3C[C@H](CN4CCCCC4)OC[C@@H]3Cc3ccc(Cl)cc3)CC2)[nH]1` [Example 52, 5-(4-((2S,5S)-5-(4-chlorobenzyl)-2-(piperidin-1-ylmethyl)morpholino)piperidin-1-yl)-4H-1,2,4-triazol-3-amine 2,2,2-trifluoroacetate], the IC50 was 100 to 1000 nM on recombinant human CHIT1, below 100 nM on recombinant human AMCase and 25000 to 100000 nM at hERG channel.

Consider `Nc1nnc(N2CCC(N3C[C@H](C(=O)NCC(F)F)OC[C@@H]3Cc3ccc(Cl)cc3)CC2)[nH]1` [Example 25, (2R,5S)-4-(1-(5-amino-4H-1,2,4-triazol-3-yl)piperidin-4-yl)-5-(4-chlorobenzyl)-N-(2,2-difluoroethyl)morpholine-2-carboxamide 2,2,2-trifluoroacetate], for which the IC50 on recombinant human CHIT1 was below 100 nM; at recombinant human AMCase it was below 100 nM; at hERG channel it was above 100000 nM.

With `Nc1nnc(N2CCC(N3C[C@H](C(=O)N4CCOCC4)OC[C@@H]3Cc3ccc(Cl)cc3)CC2)[nH]1` [Example 63, ((2R,5S)-4-(1-(5-amino-4H-1,2,4-triazol-3-yl)piperidin-4-yl)-5-(4-chlorobenzyl)-morpholin-2-yl)(morpholino)methanone 2,2,2-trifluoroacetate], the results for the IC50 at recombinant human CHIT1, on recombinant human AMCase and on hERG channel were 100 to 1000 nM, below 100 nM and above 100000 nM, respectively.

As to `CC(C)(F)[C@H]1CN(C2CCN(c3nnc(N)[nH]3)CC2)[C@@H](Cc2ccc(Cl)cc2)CO1` [Example 1, 5-(4-((2R,5S)-5-(4-chlorobenzyl)-2-(2-fluoropropan-2-yl)morpholino)piperidin-1-yl)-4H-1,2,4-triazol-3-amine 2,2,2-trifluoroacetate], the IC50 on recombinant human CHIT1 was below 100 nM; at recombinant human AMCase it was below 100 nM; at hERG channel, 25000 to 100000 nM.

Regarding `Nc1nnc(N2CCC(N3C[C@H](CN4CCOCC4)OC[C@@H]3Cc3ccc(Cl)cc3)CC2)[nH]1` [Example 15, 5-(4-((2S,5S)-5-(4-chlorobenzyl)-2-(morpholinomethyl)morpholino)piperidin-1-yl)-4H-1,2,4-triazol-3-amine 2,2,2-trifluoroacetate], the IC50 was below 100 nM on recombinant human CHIT1, below 100 nM at recombinant human AMCase and above 100000 nM on hERG channel.

Turning to `CSC[C@H]1CN(C2CCN(c3nnc(N)[nH]3)CC2)[C@@H](Cc2ccc(Cl)cc2)CO1` [Example 41, 5-(4-((2R,5S)-5-(4-chlorobenzyl)-2-((methylthio)methyl)morpholino)piperidin-1-yl)-4H-1,2,4-triazol-3-amine dihydrochloride], the results for the half-maximal inhibitory concentration (IC50) on recombinant human CHIT1, at recombinant human AMCase and on hERG channel were below 100 nM, below 100 nM and 25000 to 100000 nM, respectively.

Consider `Nc1nnc(N2CCC(N3C[C@H](N4CCOCC4)C[C@@H]3Cc3ccc(Cl)cc3)CC2)[nH]1` [Example 55, 5-(4-((2S,4R)-2-(4-chlorobenzyl)-4-morpholinopyrrolidin-1-yl)piperidin-1-yl)-4H-1,2,4-triazol-3-amine 2,2,2-trifluoroacetate], for which the values for the IC50 at recombinant human CHIT1, on recombinant human AMCase and on hERG channel were below 100 nM, below 100 nM and 25000 to 100000 nM, respectively.

As for `Nc1nnc(N2CCC(N3C[C@H](Cn4ccnn4)OC[C@@H]3Cc3ccc(Cl)cc3)CC2)[nH]1` [Example 21, 5-(4-((2R,5S)-2-((1H-1,2,3-triazol-1-yl)methyl)-5-(4-chlorobenzyl)morpholino)-piperidin-1-yl)-4H-1,2,4-triazol-3-amine 2,2,2-trifluoroacetate], the IC50 at recombinant human CHIT1 was below 100 nM; at recombinant human AMCase, below 100 nM; at hERG channel, 25000 to 100000 nM.

For `Nc1nnc(N2CCC(N3C[C@H](Cn4cc(Cl)cn4)OC[C@@H]3Cc3ccc(Cl)cc3)CC2)[nH]1` [Example 44, 5-(4-((2R,5S)-2-((4-chloro-1H-pyrazol-1-yl)methyl)-5-(4-chlorobenzyl)-morpholino)piperidin-1-yl)-4H-1,2,4-triazol-3-amine 2,2,2-trifluoroacetate], the IC50 was below 100 nM at recombinant human CHIT1, below 100 nM on recombinant human AMCase and 1000 to 10000 nM on hERG channel.

For the compound `CS(=O)(=O)C[C@H]1CN(C2CCN(c3nnc(N)[nH]3)CC2)[C@@H](Cc2ccc(Cl)cc2)CO1` [Example 33, 5-(4-((2R,5S)-5-(4-chlorobenzyl)-2-((methylsulfonyl)methyl)morpholino)piperidin-1-yl)-4H-1,2,4-triazol-3-amine dihydrochloride], the results for the IC50 on recombinant human CHIT1, on recombinant human AMCase and on hERG channel were below 100 nM, below 100 nM and above 100000 nM, respectively.

Regarding `Cn1ccc([C@H]2CN(C3CCN(c4nnc(N)[nH]4)CC3)[C@@H](Cc3ccc(Cl)cc3)CO2)n1` [Example 9, 5-(4-((2R,5S)-5-(4-chlorobenzyl)-2-(1-methyl-1H-pyrazol-3-yl)morpholino)-piperidin-1-yl)-4H-1,2,4-triazol-3-amine 2,2,2-trifluoroacetate], the IC50 is below 100 nM on recombinant human CHIT1, below 100 nM on recombinant human AMCase and above 100000 nM on hERG channel.

Take `C[C@H]1CN(C2CCN(c3nnc(N)[nH]3)CC2)[C@@H](Cc2ccc(Br)cc2)CO1` [Example 75, 5-(4-((2S,5S)-5-(4-bromobenzyl)-2-methylmorpholino)piperidin-1-yl)-4H-1,2,4-triazol-3-amine 2,2,2-trifluoroacetate]: the IC50 was below 100 nM at recombinant human CHIT1, below 100 nM at recombinant human AMCase and 1000 to 10000 nM on hERG channel.

For `Cc1coc([C@H]2CN(C3CCN(c4nnc(N)[nH]4)CC3)[C@@H](Cc3ccc(Cl)cc3)CO2)n1` [Example 49, 5-(4-((2R,5S)-5-(4-chlorobenzyl)-2-(4-methyloxazol-2-yl)morpholino)piperidin-1-yl)-4H-1,2,4-triazol-3-amine 2,2,2-trifluoroacetate], the IC50 is below 100 nM on recombinant human CHIT1, below 100 nM on recombinant human AMCase and 10000 to 25000 nM on hERG channel.
